Data: patent US12655083B2, “Solid forms of cannabidiol and uses thereof” (Artelo Biosciences, Inc., priority 2017, dated 2026)
Values after ≈ are worked out from the molar mass of the structure shown.

Experiments:
[1] = Approximate (kinetic) solubility estimate by aliquot addition with visual inspection; assay type: physicochemical; conditions: for solubility: thermodynamic from solid, ambient temperature
Experimental: Weighed samples were treated with aliquots of a solvent or solvent mixture at RT. The mixtures were sonicated between additions to facilitate dissolution. Complete dissolution of the test material was determined by visual inspection. Solubility was estimated based on the total solvent used to provide complete dissolution. The actual solubility may be greater than the value calculated because of the use of solvent aliquots that were too large or due to a slow rate of dissolution. […] If complete dissolution was achieved as a result of only one aliquot addition, the solubility is expressed as “greater than.”
Solubilities were estimated by adding measured aliquots of solvent to weighed amounts of cannabidiol at room temperature (RT). Samples were sonicated in between aliquot additions and dissolution was judged by visual inspection.

[2] = Colour change of solutions from solubility estimates at room temperature; assay type: physicochemical; conditions: acetone, acetonitrile, DMA, DMF, p-dioxane, ethanol, IPOAc, MEK and methanol; after 1-3 days at room temperature
Experimental: Kinetic solubility estimates of cannabidiol were determined in various solvents to aid in designing screening experiments (Tables 1 and 2). Solubilities were estimated by adding measured aliquots of solvent to weighed amounts of cannabidiol at room temperature (RT). Samples were sonicated in between aliquot additions and dissolution was judged by visual inspection. Discoloration of the solutions produced from solubility estimates in acetone, acetonitrile, DMA, DMF, p-dioxane, ethanol, IPOAc, MEK and methanol were observed after 1-3 days at room temperature.

In the case of `C=C(C)[C@@H]1CCC(C)=C[C@H]1c1c(O)cc(CCCCC)cc1O` [Cannabidiol], the solubility ([1]; organic solvent or mixture, Acetone) is reported as 23 mg/mL (≈ 73.1 mM), the solubility ([1]; organic solvent or mixture, Acetonitrile) is reported as greater than 50 mg/mL and the solubility ([1]; organic solvent or mixture, Cyclohexane) is reported as 15 mg/mL (≈ 47.7 mM). For the same molecule, the solubility ([1]; organic solvent or mixture, DCM) was 19 mg/mL (≈ 60.4 mM), the solubility ([1]; organic solvent or mixture, DMSO) was 21 mg/mL (≈ 66.8 mM) and the solubility ([1]; organic solvent or mixture, Diethyl Ether) was greater than 57 mg/mL. It also gave a solubility ([1]; organic solvent or mixture, EtOAc) greater than 46 mg/mL, a solubility ([1]; organic solvent or mixture, IPA) of 14 mg/mL (≈ 44.5 mM) and a solubility ([1]; organic solvent or mixture, IPOAc) greater than 68 mg/mL. The solubility ([1]; organic solvent or mixture, MEK) was greater than 55 mg/mL, the solubility ([1]; organic solvent or mixture, MIBK) was greater than 59 mg/mL and the solubility ([1]; organic solvent or mixture, MTBE) was 34 mg/mL (≈ 108 mM). For the same molecule, the solubility ([1]; organic solvent or mixture, MeOH) was greater than 57 mg/mL, the solubility ([1]; organic solvent or mixture, NMP) was 29 mg/mL (≈ 92.2 mM) and the solubility ([1]; organic solvent or mixture, Octanol) was 13 mg/mL (≈ 41.3 mM). For the same molecule, the solubility ([1]; organic solvent or mixture, TFE) was less than 1 mg/mL, the solubility ([1]; organic solvent or mixture, THF) was greater than 71 mg/mL and the solubility ([1]; organic solvent or mixture, p-dioxane) was greater than 48 mg/mL. The solubility ([1]; Water) was less than 1 mg/mL, the Aqueous solubility estimate ([1]; water, aliquot addition method) was less than 1 mg/mL and the “Discoloration of solutions from solubility estimates” value [2] was “Discoloration”.
